ChEMBL document CHEMBL1132337, “Chiral resolution and stereospecificity of 6-phenyl-4-phenylethynyl- 1,4-dihydropyridines as selective A(3) adenosine receptor antagonists” (J Med Chem, 1999)

Biological target: Adenosine receptor A2a (Rattus norvegicus) (UniProt P30543)
Experiment: Displacement of [3H]CGS-21680 from Adenosine A2A receptor of rat striatal membrane at 10e-4 M

Adenosine receptor A2a (Rattus norvegicus), sequence (P30543 whole entry): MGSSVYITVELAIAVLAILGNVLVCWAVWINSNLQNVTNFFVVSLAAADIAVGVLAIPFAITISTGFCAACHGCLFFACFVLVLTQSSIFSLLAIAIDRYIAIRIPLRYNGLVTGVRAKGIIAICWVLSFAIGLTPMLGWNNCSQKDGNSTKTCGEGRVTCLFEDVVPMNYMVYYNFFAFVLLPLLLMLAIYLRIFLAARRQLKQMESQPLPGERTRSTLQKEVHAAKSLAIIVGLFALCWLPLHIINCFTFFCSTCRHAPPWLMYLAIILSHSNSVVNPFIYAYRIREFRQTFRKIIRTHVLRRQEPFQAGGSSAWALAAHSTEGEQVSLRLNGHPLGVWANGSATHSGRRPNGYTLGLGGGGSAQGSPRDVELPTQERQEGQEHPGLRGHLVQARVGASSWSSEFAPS

Compound	inhibition [%]
CCOC(=O)C1=C(c2ccccc2)N=C(C)/C(=C(/O)OC[C@H]2COC(C)(C)O2)[C@H]1C#Cc1ccccc1	10
CCOC(=O)C1=C(c2ccccc2)N=C(C)/C(=C(/O)OC[C@H](O)CO)[C@H]1C#Cc1ccccc1	10
CCO/C(O)=C1\C(C)=NC(c2ccccc2)=C(C(=O)OCc2ccccc2)C1C#Cc1ccccc1 (stereo unspecified)	10
CCO/C(O)=C1\C(C)=NC(c2ccccc2)=C(C(=O)OCc2ccccc2)[C@@H]1C#Cc1ccccc1	11
CCOC(=O)C1=C(c2ccccc2)N=C(C)/C(=C(/O)OC[C@H]2COC(C)(C)O2)[C@@H]1C#Cc1ccccc1	10
CCO/C(O)=C1\C(C)=NC(c2ccccc2)=C(C(=O)OCc2ccccc2)[C@H]1C#Cc1ccccc1	14
